Measured values taken from US5080906A, “Method and composition for oral administration of N-acetylcysteine” (Zambon Group, S.p.A., priority 1989, dated 1992).
Counter-ions that a name gives are not always drawn. Like-named read-outs stand apart in the source and are kept apart here.

Columns and labels:
[1] = result in words; cited from earlier work
[2] = parameters: species or system Male Beagle dogs; details: dog, in vivo, po, 50 mg/kg
Procedure: (§1) Male Beagle dogs were fasted overnight and were divided into 4 groups of 4 animals each. The four groups were treated orally with different NAC solutions according to the following scheme: […] For each group of animals the dose of NAC ([…]) contained an amount of ^14 C-NAC equal to 20 μCi/kg. Blood samples were withdrawn by a heparinized syringe just before the treatment and 10, 20, 30, 45, 60, 120, 240, 360, 480 and 1,440 minutes after treatment. The blood samples were treated and stored according to the same procedure described in Example 1.

[3] = Total radioactivity in plasma after oral 3H-NAC in rats; format: in vivo, Sprague Dawley rats; details: rat, 300 mg/kg NAC (100 μCi/kg 3H-NAC), 0-24 h
Procedure: Sprague Dawley rats after overnight fast were divided into 7 groups of 33 animals each. These seven groups of animals were treated with different NAC solutions by oral route according to the following scheme:
Group 1-NAC (300 mg/kg) dissolved in water (10 ml/kg)
Group 5-NAC (300 mg/kg) and THAM (222.7 mg/kg) dissolved in water (10 ml/kg); molar ratio 1:1
For each group of animals the NAC dose (300 mg/kg) contained ^3 H-NAC in an amount yielding 100 μCi/kg. Blood samples were withdrawn just before the treatment and 15, 20, 45, 60, 90, 120, 240, 360, 480 and 1,440 minutes after treatment, via a heparinized syringe. The blood was immediately transferred into plastic tubes containing sodium dithionite (1 mg/5 μl) and 0.02N sodium EDTA (200 μl ). The plasma was separated by centrifugation at 5,000×g at 4° C. for 20 minutes and the samples thus obtained were stored at -20° C. until the analysis.
Samples of plasma (50 μl) were added to Lumagel (10 ml), were stirred and were then allowed to stand in the scintillation counter (Beckman LS 8100) at 15° C. for 4 hours. Radioactivity was measured after the stabilization time.
The total radioactivity in plasma after administration of 300 mg/kg of NAC (containing 100 μCi/kg of ^3 H-NAC) (group 1) and after administration of the same amount of NAC with THAM in the ratio 1:1 (group 5) are reported in Table 2.

in vivo = experiment: in vivo; parameters: species or system Male Beagle dogs; details: dog, po, 50 mg/kg
Procedure: as §1

[4] = Plasma level of unmodified NAC after oral administration of NAC solutions to rats (GC-MS); format: in vivo, Sprague Dawley rats; details: rat, 300 mg/kg NAC (100 μCi/kg 3H-NAC), 0-8 h, * p < 0.005 (Student's t) for NAC-THAM 1:1, read-out: AUC0-8 h, plasma NAC (total unmodified NAC)
Procedure: Sprague Dawley rats after overnight fast were divided into 7 groups of 33 animals each. These seven groups of animals were treated with different NAC solutions by oral route according to the following scheme: […] Blood samples were withdrawn just before the treatment and 15, 20, 45, 60, 90, 120, 240, 360, 480 and 1,440 minutes after treatment, via a heparinized syringe. The blood was immediately transferred into plastic tubes containing sodium dithionite (1 mg/5 μl) and 0.02N sodium EDTA (200 μl ). The plasma was separated by centrifugation at 5,000×g at 4° C. for 20 minutes and the samples thus obtained were stored at -20° C. until the analysis. […] The samples were kept at 37° C. for one hour and then an acetone:formic acid=4:1 (1 ml) mixture was added. The proteins were separated at 20,000×g for 20 minutes by centrifugation. To the supernatant 2M HCl (200 μl) was added and then the NAC was extracted twice with ethyl acetate (6 ml). […] At the end of the reaction, excess isopropanol was eliminated and the samples were reacted with 3:1 ethyl acetate:pentafluoropropionic anhydride (200 μl) at 60° C. for 30 minutes. […] In Table 1 the plasma concentrations of NAC, expressed as AUC0-8h, the total NAC detected expressed as g/l, are reported for each group of animals and treatment regimen.

[5] = THAM salt; result in words; cited from earlier work

SMILES	solubility [1]	AUC0-24 h, total radioactivity in plasma [2]	AUC0-24 h, total radioactivity in plasma [3]	AUC(0-inf) (in vivo; AUC0-.infin., plasma NAC (unmodified))	AUC(0-t) at 8 h [4]	bioavailability [5]	total amount of absorbed NAC compared with NAC as such [2]	AUC0-.infin., plasma NAC (unmodified) (in vivo)	amount of unmodified NAC in plasma compared with NAC alone (in vivo)
CC(=O)N[C@@H](CS)C(=O)O [NAC, N-acetylcysteine]	soluble	1864.13 ± 856.57 mghl^-1	4048.3 ± 105.9 mgh/l	57500 ± 7290 ng·h/mL	105000 ± 3000 ng·h/mL				
C[C@@H]1O[C@@H]1P(=O)(O)O [THAM salt of the antibiotic Fosfomycin]						better bioavailability			
CC(=O)N[C@@H](CS)C(=O)O [NAC-lysinate, NAC lysinate]		1247.23 ± 185.18 mghl^-1					not different	73.37 ± 10.33 mgh/l	do not provide plasma levels meaningfully different from those of NAC itself
